For 6 compounds, Ki results are on record in BindingDB's records for doi:10.1007/s00213-002-1073-7 (WestfÄLische Wilhelms-Universit&Auml, 2002).

A word on the Ki: it is the dissociation constant of the complex between target and ligand, obtained from inhibition or displacement.

Values joined by “and” are separate entries in the source; they are usually repeats but may differ in a detail not shown here. Equal entries are not always repeated.

For experiment [1], the target named is T1, 5-hydroxytryptamine receptor 3A (Homo sapiens, UniProt P46098).
T1 sequence (P46098 whole entry): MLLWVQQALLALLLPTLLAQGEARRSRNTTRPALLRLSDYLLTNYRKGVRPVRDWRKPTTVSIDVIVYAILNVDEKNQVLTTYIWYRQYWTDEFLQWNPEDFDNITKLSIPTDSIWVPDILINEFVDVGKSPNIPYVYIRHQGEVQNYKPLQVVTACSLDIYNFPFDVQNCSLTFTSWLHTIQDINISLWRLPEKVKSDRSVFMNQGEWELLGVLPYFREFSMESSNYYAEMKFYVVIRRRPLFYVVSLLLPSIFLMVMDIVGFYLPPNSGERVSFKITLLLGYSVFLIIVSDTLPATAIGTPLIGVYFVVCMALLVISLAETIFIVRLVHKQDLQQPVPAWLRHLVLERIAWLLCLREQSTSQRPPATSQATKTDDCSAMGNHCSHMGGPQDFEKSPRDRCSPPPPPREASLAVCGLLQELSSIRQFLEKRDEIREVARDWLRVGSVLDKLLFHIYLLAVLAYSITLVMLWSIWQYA

Experiment [2] addresses Beta-1 adrenergic receptor (Rattus norvegicus, UniProt P18090).
The target in experiment [3] is T2, Alpha-1B adrenergic receptor (Homo sapiens, UniProt P35368).
T2 sequence (P35368 whole entry): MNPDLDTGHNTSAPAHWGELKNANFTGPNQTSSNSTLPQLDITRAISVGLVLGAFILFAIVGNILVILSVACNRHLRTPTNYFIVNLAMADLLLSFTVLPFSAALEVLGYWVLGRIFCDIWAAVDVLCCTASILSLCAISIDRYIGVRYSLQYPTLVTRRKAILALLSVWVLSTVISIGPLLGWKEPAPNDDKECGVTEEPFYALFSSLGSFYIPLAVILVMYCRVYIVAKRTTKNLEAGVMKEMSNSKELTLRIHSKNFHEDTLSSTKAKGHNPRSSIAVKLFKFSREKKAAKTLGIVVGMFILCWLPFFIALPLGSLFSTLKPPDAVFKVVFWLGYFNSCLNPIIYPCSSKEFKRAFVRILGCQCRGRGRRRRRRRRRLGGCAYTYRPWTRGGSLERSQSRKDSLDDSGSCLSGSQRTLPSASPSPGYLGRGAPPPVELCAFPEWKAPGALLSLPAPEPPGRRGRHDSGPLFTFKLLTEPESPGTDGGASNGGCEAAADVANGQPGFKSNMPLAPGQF

Experiment [4] deals with T3, Alpha-2C adrenergic receptor (Homo sapiens, UniProt P18825).
T3 sequence (P18825 whole entry): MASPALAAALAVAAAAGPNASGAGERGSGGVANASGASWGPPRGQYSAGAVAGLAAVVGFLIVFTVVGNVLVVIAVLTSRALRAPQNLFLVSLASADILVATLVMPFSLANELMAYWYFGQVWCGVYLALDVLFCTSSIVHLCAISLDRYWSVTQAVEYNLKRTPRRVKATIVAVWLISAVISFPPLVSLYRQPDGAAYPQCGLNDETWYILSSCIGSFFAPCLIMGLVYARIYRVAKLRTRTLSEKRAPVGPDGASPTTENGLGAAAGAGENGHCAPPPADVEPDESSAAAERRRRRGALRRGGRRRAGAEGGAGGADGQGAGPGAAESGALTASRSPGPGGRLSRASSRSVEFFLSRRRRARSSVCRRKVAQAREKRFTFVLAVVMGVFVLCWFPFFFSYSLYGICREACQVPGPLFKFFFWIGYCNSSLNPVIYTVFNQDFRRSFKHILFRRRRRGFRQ

Experiment [5] addresses 5-hydroxytryptamine receptor 1D (Homo sapiens, UniProt P28221).
Experiment [6] addresses T4, 5-hydroxytryptamine receptor 1A (Homo sapiens, UniProt P08908).
T4 sequence (P08908 whole entry): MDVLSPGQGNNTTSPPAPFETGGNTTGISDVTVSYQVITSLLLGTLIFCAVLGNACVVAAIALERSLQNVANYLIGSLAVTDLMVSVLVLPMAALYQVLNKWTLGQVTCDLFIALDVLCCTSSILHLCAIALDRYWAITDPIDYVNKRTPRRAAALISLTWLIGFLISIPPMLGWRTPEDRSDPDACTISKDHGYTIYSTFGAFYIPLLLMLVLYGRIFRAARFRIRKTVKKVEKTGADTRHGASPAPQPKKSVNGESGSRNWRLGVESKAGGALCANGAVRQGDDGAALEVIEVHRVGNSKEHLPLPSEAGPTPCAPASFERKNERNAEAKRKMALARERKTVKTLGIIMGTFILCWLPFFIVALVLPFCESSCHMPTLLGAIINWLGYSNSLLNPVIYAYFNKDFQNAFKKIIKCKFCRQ

A further experiment has as its target D(1B) dopamine receptor (Homo sapiens, UniProt P21918).
For a further experiment, the target named is Histamine H1 receptor (Rattus norvegicus, UniProt P31390).
Histamine H1 receptor, sequence (P31390 whole entry): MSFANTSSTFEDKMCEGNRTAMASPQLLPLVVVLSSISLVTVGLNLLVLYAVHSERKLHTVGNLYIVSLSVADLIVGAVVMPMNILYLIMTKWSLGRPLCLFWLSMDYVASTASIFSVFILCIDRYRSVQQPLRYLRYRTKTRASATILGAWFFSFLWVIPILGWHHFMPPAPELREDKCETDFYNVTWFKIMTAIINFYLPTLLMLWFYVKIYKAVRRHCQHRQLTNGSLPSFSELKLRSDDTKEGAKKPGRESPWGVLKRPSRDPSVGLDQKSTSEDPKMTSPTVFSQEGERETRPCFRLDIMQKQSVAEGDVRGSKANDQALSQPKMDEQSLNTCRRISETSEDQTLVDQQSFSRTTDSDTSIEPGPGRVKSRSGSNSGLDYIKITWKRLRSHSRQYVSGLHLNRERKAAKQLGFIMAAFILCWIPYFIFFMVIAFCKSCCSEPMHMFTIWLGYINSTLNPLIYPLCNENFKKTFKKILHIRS
Experiment [7] has as its target Sodium-dependent dopamine transporter (Bos taurus, UniProt P27922).
The target in experiment [8] is T5, Muscarinic acetylcholine receptor M1 (Homo sapiens, UniProt P11229).
T5 sequence (P11229 whole entry): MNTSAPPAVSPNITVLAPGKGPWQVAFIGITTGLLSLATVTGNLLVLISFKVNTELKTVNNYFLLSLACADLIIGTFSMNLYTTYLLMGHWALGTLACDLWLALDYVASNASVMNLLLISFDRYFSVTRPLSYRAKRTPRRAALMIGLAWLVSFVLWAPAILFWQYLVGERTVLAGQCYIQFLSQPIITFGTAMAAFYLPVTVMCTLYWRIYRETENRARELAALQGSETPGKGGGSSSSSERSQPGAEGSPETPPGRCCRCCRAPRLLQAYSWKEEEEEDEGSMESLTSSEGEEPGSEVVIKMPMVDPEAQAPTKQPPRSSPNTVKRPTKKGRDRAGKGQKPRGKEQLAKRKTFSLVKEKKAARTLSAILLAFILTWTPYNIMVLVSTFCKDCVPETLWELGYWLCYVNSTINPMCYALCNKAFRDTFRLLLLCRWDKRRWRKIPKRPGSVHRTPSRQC

In experiment [9] the target is Muscarinic acetylcholine receptor M3 (Homo sapiens, UniProt P20309).
Muscarinic acetylcholine receptor M3, sequence (P20309 whole entry): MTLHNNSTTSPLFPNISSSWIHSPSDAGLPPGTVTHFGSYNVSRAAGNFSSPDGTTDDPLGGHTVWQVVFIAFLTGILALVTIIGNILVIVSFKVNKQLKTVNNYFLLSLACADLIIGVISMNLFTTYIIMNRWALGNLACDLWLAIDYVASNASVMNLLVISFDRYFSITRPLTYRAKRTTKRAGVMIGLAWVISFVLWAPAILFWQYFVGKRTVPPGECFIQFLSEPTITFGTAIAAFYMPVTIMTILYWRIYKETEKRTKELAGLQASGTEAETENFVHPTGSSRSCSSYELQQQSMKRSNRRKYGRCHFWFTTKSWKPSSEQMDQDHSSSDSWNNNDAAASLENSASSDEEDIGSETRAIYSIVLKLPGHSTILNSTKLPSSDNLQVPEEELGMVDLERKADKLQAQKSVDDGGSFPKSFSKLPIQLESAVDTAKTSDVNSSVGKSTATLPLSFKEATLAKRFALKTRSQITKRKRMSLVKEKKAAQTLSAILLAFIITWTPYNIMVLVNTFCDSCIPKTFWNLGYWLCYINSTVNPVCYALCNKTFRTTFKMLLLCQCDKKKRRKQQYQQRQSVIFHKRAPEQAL

Sodium-dependent dopamine transporter, sequence (P27922 whole entry): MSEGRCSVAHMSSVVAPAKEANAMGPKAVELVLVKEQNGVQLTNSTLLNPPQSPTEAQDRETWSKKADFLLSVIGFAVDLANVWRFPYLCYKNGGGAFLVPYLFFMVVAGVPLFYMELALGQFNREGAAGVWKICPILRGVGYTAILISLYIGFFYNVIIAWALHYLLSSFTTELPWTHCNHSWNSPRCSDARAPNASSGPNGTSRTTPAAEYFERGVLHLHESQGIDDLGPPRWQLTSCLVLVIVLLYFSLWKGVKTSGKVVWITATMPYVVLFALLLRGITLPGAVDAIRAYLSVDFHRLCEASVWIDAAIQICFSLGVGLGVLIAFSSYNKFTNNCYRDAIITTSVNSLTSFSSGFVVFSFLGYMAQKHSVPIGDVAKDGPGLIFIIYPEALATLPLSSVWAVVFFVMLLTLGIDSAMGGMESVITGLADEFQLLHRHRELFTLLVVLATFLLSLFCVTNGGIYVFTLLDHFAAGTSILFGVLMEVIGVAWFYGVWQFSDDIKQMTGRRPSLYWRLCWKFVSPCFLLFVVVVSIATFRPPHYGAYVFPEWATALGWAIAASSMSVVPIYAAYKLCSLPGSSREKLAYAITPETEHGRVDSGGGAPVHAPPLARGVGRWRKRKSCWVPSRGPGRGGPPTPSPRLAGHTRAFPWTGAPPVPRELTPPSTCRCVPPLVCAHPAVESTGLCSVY
5-hydroxytryptamine receptor 1D, sequence (P28221 whole entry): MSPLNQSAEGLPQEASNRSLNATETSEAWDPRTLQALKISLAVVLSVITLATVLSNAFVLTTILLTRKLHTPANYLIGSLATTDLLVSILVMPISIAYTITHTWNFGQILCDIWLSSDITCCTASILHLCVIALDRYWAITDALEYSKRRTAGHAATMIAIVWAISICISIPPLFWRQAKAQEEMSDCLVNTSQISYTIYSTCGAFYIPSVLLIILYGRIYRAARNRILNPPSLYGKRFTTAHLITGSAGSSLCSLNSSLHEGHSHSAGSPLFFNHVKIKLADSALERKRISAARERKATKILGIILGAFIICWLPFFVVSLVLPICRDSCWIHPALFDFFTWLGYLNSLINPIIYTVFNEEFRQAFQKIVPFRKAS
Beta-1 adrenergic receptor, sequence (P18090 whole entry): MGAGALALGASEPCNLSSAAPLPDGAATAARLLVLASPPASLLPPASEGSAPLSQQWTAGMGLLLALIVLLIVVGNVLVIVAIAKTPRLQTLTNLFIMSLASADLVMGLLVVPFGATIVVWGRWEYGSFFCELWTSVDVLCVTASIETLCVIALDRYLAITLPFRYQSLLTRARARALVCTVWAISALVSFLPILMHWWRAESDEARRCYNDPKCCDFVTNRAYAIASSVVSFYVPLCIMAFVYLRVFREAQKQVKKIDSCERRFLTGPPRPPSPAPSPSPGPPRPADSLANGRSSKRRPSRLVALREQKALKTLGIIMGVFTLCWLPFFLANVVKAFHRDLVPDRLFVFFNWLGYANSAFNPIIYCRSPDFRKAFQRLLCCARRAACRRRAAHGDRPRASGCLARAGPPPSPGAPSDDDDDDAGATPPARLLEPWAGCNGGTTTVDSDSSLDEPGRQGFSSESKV
D(1B) dopamine receptor, sequence (P21918 whole entry): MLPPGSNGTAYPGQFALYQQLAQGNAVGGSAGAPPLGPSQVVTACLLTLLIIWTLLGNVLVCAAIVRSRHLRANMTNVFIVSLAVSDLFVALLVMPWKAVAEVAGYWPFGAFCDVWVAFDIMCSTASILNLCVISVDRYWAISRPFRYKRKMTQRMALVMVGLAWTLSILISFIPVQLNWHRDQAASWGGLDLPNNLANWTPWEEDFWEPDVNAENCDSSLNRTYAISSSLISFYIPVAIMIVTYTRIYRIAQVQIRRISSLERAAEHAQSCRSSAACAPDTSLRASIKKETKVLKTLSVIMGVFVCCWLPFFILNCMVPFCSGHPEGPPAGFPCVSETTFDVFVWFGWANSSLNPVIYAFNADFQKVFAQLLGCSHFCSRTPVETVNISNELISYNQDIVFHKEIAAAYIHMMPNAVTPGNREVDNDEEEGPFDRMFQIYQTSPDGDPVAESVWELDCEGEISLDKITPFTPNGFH

Regarding `O=c1c(O)c(-c2ccc(O)c(O)c2)oc2cc(O)cc(O)c12` [2-(3,4-dihydroxyphenyl)-3,5,7-trihydroxy-chromone;hydrate], the inhibitory constant (Ki) in experiment [1], in experiment [2], in [3], in experiment [4], in experiment [5] and in experiment [6] was over 10 µM each time. The inhibition constant Ki (at D(1B) dopamine receptor; at Histamine H1 receptor; in [7]; in [8]; in experiment [9]) was over 10 µM each time.

Regarding `O=c1cc(O)cc2oc(-c3ccc(O)c(-c4c(O)cc(O)c5c(=O)cc(-c6ccc(O)cc6)oc45)c3)cc(O)c1-2`, the Ki in experiment [1], in experiment [2], in experiment [3], in experiment [4], in [5] and in experiment [6] was over 10 µM in each case. The inhibition constant (Ki) on D(1B) dopamine receptor is over 10 µM; at Histamine H1 receptor, over 10 µM; in experiment [7], 0.877 µM; in [8] it was over 10 µM; in [9] it was over 10 µM.

Turning to `C[C@@H]1O[C@@H](Oc2c(-c3ccc(O)c(O)c3)oc3cc(O)cc(=O)c-3c2O)[C@H](O)[C@H](O)[C@H]1O`, the inhibition constant Ki in experiment [1], in experiment [2], in [3], in experiment [4], in experiment [5] and in experiment [6] was over 10 µM throughout. Besides, the Ki (on D(1B) dopamine receptor; at Histamine H1 receptor; in experiment [7]; in experiment [8]; in [9]) was over 10 µM throughout.

For the compound `O=c1cc(O)cc2oc(-c3ccc(O)c(O)c3)c(OC3OC(CO)C(O)C(O)C3O)c(O)c1-2` (stereo unspecified) [NSC_5318390], the inhibition constant (Ki) was over 10 µM in [1]; over 10 µM in [2]; over 10 µM in experiment [3]; > 10 µM and 4.06 µM in [4]; over 10 µM in [5]; over 10 µM in [6]. In addition, the inhibition constant Ki (at D(1B) dopamine receptor; at Histamine H1 receptor; in experiment [7]; in [8]; in [9]) was over 10 µM each time.

`C[C@@H]1O[C@@H](OC[C@H]2O[C@@H](Oc3c(-c4ccc(O)c(O)c4)oc4cc(O)cc(O)c4c3=O)[C@H](O)[C@@H](O)[C@@H]2O)[C@H](O)[C@H](O)[C@H]1O` [3-Rhamnoglucosylquercetin]: the Ki was over 10 µM in [1]; over 10 µM in experiment [2]; over 10 µM in experiment [3]; 9.64 µM in experiment [4]; over 10 µM in [5]; over 10 µM in experiment [6]. The Ki (on D(1B) dopamine receptor; at Histamine H1 receptor; in [7]; in experiment [8]; in experiment [9]) was over 10 µM throughout.

With `CC(C)=CCC[C@]1(C)[C@@H](CC=C(C)C)C[C@]2(CC=C(C)C)C(=O)C(CC=C(C)C)C(=O)[C@]1(C(=O)C(C)C)C2=O` (stereo partly specified), the Ki in experiment [1], in experiment [2], in experiment [3], in experiment [4], in [5] and in [6] was over 10 µM each time. The Ki (at D(1B) dopamine receptor; at Histamine H1 receptor; in experiment [7]; in [8]; in [9]) was over 10 µM throughout.
